# Assays:
# Assay type in all cases: in vivo
# [1] = tested on: Wheat (winter wheat, TRZAW); experiment: Prior-art method: post-emergence herbicide with or without safener in tank mix, greenhouse pot test, crop damage scored visually; details: 20 days after post-emergence application at BBCH11; herbicide 300 g/ha; safener (mefenpyr-diethyl) 200 g/ha in tank mix where combined; vs untreated controls; mean of at least 3 replicates
# Description: 1. Method as Used in the Prior Art
# (§1) Wheat seeds (winter wheat, TRZAW) were placed in sandy loam soil in pots of a diameter of 7 cm, covered with soil and cultivated in a greenhouse under good growth conditions.
# Post-emergence application was done when the plants had reached growth stage BBCH11 (BBCH is the international coding system for the growth stage of crops and weeds).
# (§2) The safener (mefenpyr-diethyl) was formulated as wettable powder (WP).
# (§3) The compounds were sprayed onto the green parts of the plants as an aqueous suspension at an equivalent water application rate of 300 l/ha with addition of 0.2% wetting agent (Agrotin).
# (§4) The combination of herbicide and safener was applied as a tank mix.
# (§5) After application, the test plants were kept in the greenhouse under good growth conditions.
# (§6) Values in the table below are mean values from at least 3 replicates.
# [2] = tested on: Wheat (winter wheat, TRZAW); experiment: Method A: safener seed treatment, then post-emergence herbicide, greenhouse pot test, crop damage scored visually; details: 20 days after post-emergence application at BBCH11; herbicide 300 g/ha; safener (mefenpyr-diethyl) seed treatment 0.5 g/kg where combined; vs untreated controls; mean of at least 3 replicates
# Description: as §1
# (§7) For the safener seed treatment, sufficient seeds were weighed into screw top glass bottles approximately twice the volume of the seeds.
# (§8) The safener (mefenpyr-diethyl, formulated as wettable powder; WP) was weighed out so that the required rates (g a.i./kg seed) would be obtained, dissolved in water (1 ml water per 10 g of seeds), and added to the seeds to produce a slurry.
# (§9) The bottles were capped and then placed in an overhead shaker (set at medium speed for up to 1 hour) so that the seeds were evenly coated with the slurry. The bottles were uncapped and the seeds were sown as described above.
# Post-emergence application of the herbicide was done when the plants had reached growth stage BBCH11.
# as §5, §6
# [3] = tested on: Wheat (winter wheat, TRZAW); experiment: Method C: safener seed treatment, then post-emergence herbicide plus safener tank mix, greenhouse pot test, crop damage scored visually; details: 20 days after post-emergence application at BBCH11; herbicide 300 g/ha; safener (mefenpyr-diethyl) seed treatment 0.5 g/kg and 200 g/ha in tank mix where combined; vs untreated controls; mean of at least 3 replicates
# Description: as §1, §7, §8, §9
# Post-emergence application was done when the plants had reached growth stage BBCH11.
# as §2, §3, §4, §5, §6
# [4] = tested on: Wheat (winter wheat, TRZAW); experiment: Method D: safener seed treatment, then pre-emergence herbicide plus safener tank mix, greenhouse pot test, crop damage scored visually; details: 21 days after pre-emergence application to the soil surface; herbicide 300 g/ha; safener (mefenpyr-diethyl) seed treatment 0.5 g/kg and 200 g/ha in tank mix where combined; vs untreated controls; mean of at least 3 replicates
# Description: as §1, §7, §8, §9
# The compounds were sprayed to the soil surface as an aqueous suspension at an equivalent water application rate of 300 l/ha with addition of 0.2% wetting agent (Agrotin).
# as §4, §5, §6
smiles,measurement,setting,value
"CC1(C)CON(Cc2ccc(Cl)cc2Cl)C1=O [Herbicide post-em., 2-(2,4-dichlorophenyl)methyl-4,4-dimethyl-3-isoxazolidinone]",% chlorosis,[1],40%
same,% growth depression,[1],40%
same,% chlorosis,[2],40%
same,% growth depression,[2],40%
same,% chlorosis,[3],40%
same,% growth depression,[3],40%
same,% chlorosis,[4],17%
same,% growth depression,[4],27%
